# Assay results taken from ChEMBL document CHEMBL3588800, “Novel Bioactive Hybrid Compound Dual Targeting Estrogen Receptor and Histone Deacetylase for the Treatment of Breast Cancer” (J Med Chem, 2015).
# What was measured:
# DU-145 = assay: cells; assay type: functional, cell-based; conditions: Homo sapiens, DU-145, 72 h
# Estrogen receptor beta [1] = target: T1, Estrogen receptor beta (Homo sapiens, UniProt Q92731); assay: Agonist activity at ER-beta (unknown origin) transfected in HEK293T cells assessed as stimulation of transcriptional activity after 24 hrs by luciferase reporter gene assay relative to 17-beta estradiol; assay type: cell-based; conditions: HEK-293T
# Vero = assay: cells; assay type: ADME, cell-based; conditions: Chlorocebus sabaeus, 72 h
# [2] = target: T2, Estrogen receptor (Homo sapiens) (UniProt P03372); assay: Antagonist activity at ER-alpha (unknown origin) transfected in HEK293T cells assessed as inhibition of transcriptional activity after 24 hrs by luciferase reporter gene assay relative to 17-beta estradiol; assay type: cell-based; conditions: HEK-293T
# T2 sequence (whole entry): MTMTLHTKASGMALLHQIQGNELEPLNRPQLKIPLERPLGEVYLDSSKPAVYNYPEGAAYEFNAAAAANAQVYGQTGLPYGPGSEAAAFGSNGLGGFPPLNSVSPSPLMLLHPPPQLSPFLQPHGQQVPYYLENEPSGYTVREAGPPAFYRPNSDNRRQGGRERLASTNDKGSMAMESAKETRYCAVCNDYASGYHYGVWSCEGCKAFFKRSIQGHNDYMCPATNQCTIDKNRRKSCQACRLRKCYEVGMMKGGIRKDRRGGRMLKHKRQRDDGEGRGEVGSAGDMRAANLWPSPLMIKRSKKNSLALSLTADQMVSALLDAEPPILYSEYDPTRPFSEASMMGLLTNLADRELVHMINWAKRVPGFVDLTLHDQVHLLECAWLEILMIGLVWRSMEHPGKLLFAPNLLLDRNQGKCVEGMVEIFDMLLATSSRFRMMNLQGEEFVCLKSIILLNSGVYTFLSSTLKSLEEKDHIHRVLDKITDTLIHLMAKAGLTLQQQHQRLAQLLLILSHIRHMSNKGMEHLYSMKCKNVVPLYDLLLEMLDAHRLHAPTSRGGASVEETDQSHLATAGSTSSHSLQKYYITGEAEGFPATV
# MCF7 = assay: cells; assay type: functional, cell-based; conditions: Homo sapiens, MCF7, 72 h
# Estrogen receptor [3] = target: T3, Estrogen receptor (Homo sapiens, UniProt P03372); assay: Agonist activity at ER-alpha (unknown origin) transfected in HEK293T cells assessed as stimulation of transcriptional activity after 24 hrs by luciferase reporter gene assay; assay type: cell-based, HEK-293T
# T3 sequence (P03372 whole entry): T2 sequence (whole entry)
# Estrogen receptor beta [4] = target: T1, Estrogen receptor beta; assay: Antagonist activity at ER-beta (unknown origin) transfected in HEK293T cells assessed as inhibition of transcriptional activity after 24 hrs by luciferase reporter gene assay relative to 17-beta estradiol; assay type: cell-based; conditions: HEK-293T
# [5] = target: T2, Estrogen receptor (Homo sapiens); assay: Agonist activity at ER-alpha (unknown origin) transfected in HEK293T cells assessed as stimulation of transcriptional activity after 24 hrs by luciferase reporter gene assay relative to 17-beta estradiol; assay type: cell-based; conditions: HEK-293T
# Estrogen receptor beta [6] = target: T1, Estrogen receptor beta; assay: Binding affinity to human ER-beta ligand binding domain after 2 hrs by competitive fluorometric binding assay
# Estrogen receptor [7] = target: T3, Estrogen receptor; assay: Binding affinity to human ER-alpha ligand binding domain after 2 hrs by competitive fluorometric binding assay
# [8] = target: T4, Protein deacetylase HDAC6 (Homo sapiens, UniProt Q9UBN7); assay: Inhibition of human recombinant HDAC6 after 15 mins by fluorogenic assay; conditions: read-out: IC50
# T4 sequence (Q9UBN7 whole entry): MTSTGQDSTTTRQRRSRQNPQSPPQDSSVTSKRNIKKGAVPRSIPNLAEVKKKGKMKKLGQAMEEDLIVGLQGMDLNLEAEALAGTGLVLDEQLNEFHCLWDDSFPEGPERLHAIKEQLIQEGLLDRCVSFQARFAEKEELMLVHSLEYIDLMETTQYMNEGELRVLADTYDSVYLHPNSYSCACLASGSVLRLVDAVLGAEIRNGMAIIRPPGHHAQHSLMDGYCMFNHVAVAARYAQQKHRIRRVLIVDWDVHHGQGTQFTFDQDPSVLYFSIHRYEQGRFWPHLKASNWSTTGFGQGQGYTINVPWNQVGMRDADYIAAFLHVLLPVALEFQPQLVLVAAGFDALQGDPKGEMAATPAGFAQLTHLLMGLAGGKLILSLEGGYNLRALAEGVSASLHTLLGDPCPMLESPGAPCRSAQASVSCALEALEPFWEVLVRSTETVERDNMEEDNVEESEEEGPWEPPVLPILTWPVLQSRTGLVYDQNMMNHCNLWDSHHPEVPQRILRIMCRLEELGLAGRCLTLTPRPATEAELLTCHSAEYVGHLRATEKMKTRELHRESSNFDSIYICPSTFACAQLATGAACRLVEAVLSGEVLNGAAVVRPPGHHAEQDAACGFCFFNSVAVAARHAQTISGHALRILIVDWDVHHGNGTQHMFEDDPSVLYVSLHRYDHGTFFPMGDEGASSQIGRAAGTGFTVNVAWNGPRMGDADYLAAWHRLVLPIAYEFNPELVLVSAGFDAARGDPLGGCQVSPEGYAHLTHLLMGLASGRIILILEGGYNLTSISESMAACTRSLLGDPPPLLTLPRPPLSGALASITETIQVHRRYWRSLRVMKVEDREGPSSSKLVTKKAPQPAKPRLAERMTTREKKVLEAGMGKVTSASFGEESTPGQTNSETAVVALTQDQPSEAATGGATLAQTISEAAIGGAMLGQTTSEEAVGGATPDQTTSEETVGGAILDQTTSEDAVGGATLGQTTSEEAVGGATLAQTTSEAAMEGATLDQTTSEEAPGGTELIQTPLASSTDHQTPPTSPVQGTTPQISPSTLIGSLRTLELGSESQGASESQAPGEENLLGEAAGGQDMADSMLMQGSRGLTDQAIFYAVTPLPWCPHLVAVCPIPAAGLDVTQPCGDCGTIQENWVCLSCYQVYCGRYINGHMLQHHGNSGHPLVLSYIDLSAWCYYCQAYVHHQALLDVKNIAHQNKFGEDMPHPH
# Histone deacetylase 1 = Histone deacetylase 1 (Homo sapiens, UniProt Q13547); assay: Inhibition of human recombinant HDAC1 after 15 mins by fluorogenic assay
# Estrogen receptor beta [9] = target: T1, Estrogen receptor beta; assay: Antagonist activity at ER-beta (unknown origin) transfected in HEK293T cells assessed as inhibition of transcriptional activity after 24 hrs by luciferase reporter gene assay; assay type: cell-based, HEK-293T
# Estrogen receptor beta [10] = target: T1, Estrogen receptor beta; assay: Agonist activity at ER-beta (unknown origin) transfected in HEK293T cells assessed as stimulation of transcriptional activity after 24 hrs by luciferase reporter gene assay; assay type: cell-based, HEK-293T
# Estrogen receptor [11] = target: T3, Estrogen receptor; assay: Antagonist activity at ER-alpha (unknown origin) transfected in HEK293T cells assessed as inhibition of transcriptional activity after 24 hrs by luciferase reporter gene assay; assay type: cell-based, HEK-293T
# Chain of Histone deacetylase 1 (Q13547 whole entry): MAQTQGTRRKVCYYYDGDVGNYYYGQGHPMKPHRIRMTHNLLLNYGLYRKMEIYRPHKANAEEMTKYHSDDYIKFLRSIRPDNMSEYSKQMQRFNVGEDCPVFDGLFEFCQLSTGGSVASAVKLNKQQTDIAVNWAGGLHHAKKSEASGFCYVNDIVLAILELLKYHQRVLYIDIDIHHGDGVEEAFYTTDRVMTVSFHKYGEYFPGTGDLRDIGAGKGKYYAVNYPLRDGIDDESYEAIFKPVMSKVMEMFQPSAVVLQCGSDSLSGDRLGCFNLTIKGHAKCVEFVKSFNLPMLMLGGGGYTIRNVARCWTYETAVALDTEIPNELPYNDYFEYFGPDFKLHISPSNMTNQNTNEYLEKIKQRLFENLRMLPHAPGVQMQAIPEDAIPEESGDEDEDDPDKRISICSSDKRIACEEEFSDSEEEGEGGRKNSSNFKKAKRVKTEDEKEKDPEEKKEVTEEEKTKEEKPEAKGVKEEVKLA
# T1 sequence (Q92731 whole entry): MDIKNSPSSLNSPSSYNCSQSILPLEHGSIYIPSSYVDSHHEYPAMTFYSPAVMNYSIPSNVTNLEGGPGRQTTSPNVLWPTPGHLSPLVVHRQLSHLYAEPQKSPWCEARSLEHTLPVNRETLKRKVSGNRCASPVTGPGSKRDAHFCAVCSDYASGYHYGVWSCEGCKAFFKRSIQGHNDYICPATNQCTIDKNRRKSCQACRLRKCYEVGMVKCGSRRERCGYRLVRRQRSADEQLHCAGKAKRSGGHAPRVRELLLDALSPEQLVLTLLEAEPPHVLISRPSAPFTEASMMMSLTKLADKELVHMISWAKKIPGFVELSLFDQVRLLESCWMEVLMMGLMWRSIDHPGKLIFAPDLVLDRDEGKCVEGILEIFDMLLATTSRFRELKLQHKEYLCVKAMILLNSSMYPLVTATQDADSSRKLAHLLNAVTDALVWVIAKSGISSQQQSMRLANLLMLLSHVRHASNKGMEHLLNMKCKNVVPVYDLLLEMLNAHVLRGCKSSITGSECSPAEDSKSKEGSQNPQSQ
smiles,measurement,setting,value
COC(=O)CCCCCCC(=O)Nc1cccc(OS(=O)(=O)C2CC3OC2C(c2ccc(O)cc2)=C3c2ccc(O)cc2)c1 (configuration not stated),IC50,DU-145,19.3 µM
same,Efficacy,Estrogen receptor beta [1],3%
same,IC50,Vero,> 100 µM
same,Efficacy,[2],111%
same,IC50,MCF7,19.1 µM
same,EC50,Estrogen receptor [3],0.001 µM
same,Efficacy,Estrogen receptor beta [4],91%
same,Efficacy,[5],16%
O=C(CCCCCCC(=O)Nc1ccc(OS(=O)(=O)C2CC3OC2C(c2ccc(O)cc2)=C3c2ccc(O)cc2)cc1)NO (configuration not stated),Ki,Estrogen receptor beta [6],0.127 µM
same,Ki,Estrogen receptor [7],0.148 µM
same,IC50,DU-145,42.3 µM
same,Efficacy,Estrogen receptor beta [1],3%
same,IC50,Vero,> 100 µM
same,Efficacy,[2],104%
same,IC50,MCF7,55.2 µM
same,IC50,[8],0.189 µM
same,IC50,Histone deacetylase 1; read-out: IC50,0.583 µM
same,IC50,Estrogen receptor beta [9],1.14 µM
same,Efficacy,Estrogen receptor beta [4],-27%
same,Efficacy,[5],-15%
O=C(O)CCCCCCC(=O)Nc1ccc(C2=C(c3ccc(O)cc3)C3CC(S(=O)(=O)Oc4ccc5ccccc5c4)C2O3)cc1 (configuration not stated),IC50,DU-145,58.3 µM
same,Efficacy,Estrogen receptor beta [1],19%
same,EC50,Estrogen receptor beta [10],0.53 µM
same,IC50,Vero,> 100 µM
same,Efficacy,[2],45%
same,IC50,MCF7,18.9 µM
same,IC50,[8],8.11 µM
same,IC50,Histone deacetylase 1; read-out: IC50,0.282 µM
same,Efficacy,Estrogen receptor beta [4],94%
same,Efficacy,[5],-21%
same,IC50,Estrogen receptor [11],0.92 µM
O=C(O)CCCCCCC(=O)Nc1ccc(C2=C(c3ccc(O)cc3)C3CC(S(=O)(=O)Oc4ccccc4)C2O3)cc1 (racemic),Ki,Estrogen receptor beta [6],0.654 µM
same,Ki,Estrogen receptor [7],0.112 µM
same,IC50,DU-145,> 100 µM
same,Efficacy,Estrogen receptor beta [1],36%
same,EC50,Estrogen receptor beta [10],0.93 µM
same,IC50,Vero,> 100 µM
same,Efficacy,[2],36%
same,IC50,MCF7,66.4 µM
same,Efficacy,Estrogen receptor beta [4],97%
same,Efficacy,[5],-13%
same,IC50,Estrogen receptor [11],1.21 µM
COc1ccc(OS(=O)(=O)C2CC3OC2C(c2ccc(NC(=O)CCCCCCC(=O)O)cc2)=C3c2ccc(O)cc2)cc1 (racemic),IC50,DU-145,38.6 µM
same,Efficacy,Estrogen receptor beta [1],5%
same,IC50,Vero,> 100 µM
same,Efficacy,[2],40%
same,IC50,MCF7,15.3 µM
same,IC50,[8],4.17 µM
same,IC50,Histone deacetylase 1,Not Active
same,Efficacy,Estrogen receptor beta [4],137%
same,Efficacy,[5],27%
same,IC50,Estrogen receptor [11],116 µM
Cc1ccccc1OS(=O)(=O)C1CC2OC1C(c1ccc(NC(=O)CCCCCCC(=O)O)cc1)=C2c1ccc(O)cc1 (racemic),IC50,DU-145,> 100 µM
same,Efficacy,Estrogen receptor beta [1],24%
same,EC50,Estrogen receptor beta [10],0.38 µM
same,IC50,Vero,> 100 µM
same,Efficacy,[2],43%
same,IC50,MCF7,7.9 µM
same,IC50,[8],5.01 µM
same,IC50,Histone deacetylase 1; read-out: IC50,0.022 µM
same,Efficacy,Estrogen receptor beta [4],117%
same,Efficacy,[5],-3%
same,IC50,Estrogen receptor [11],0.46 µM
O=C(O)CCCCCCC(=O)Nc1ccc(C2=C(c3ccc(O)cc3)C3CC(S(=O)(=O)Oc4cccc(O)c4)C2O3)cc1 (racemic),IC50,DU-145,23.8 µM
same,Efficacy,Estrogen receptor beta [1],105%
same,EC50,Estrogen receptor beta [10],8.1 µM
same,IC50,Vero,> 100 µM
same,Efficacy,[2],108%
same,IC50,MCF7,3.6 µM
same,IC50,[8],0.071 µM
same,EC50,Estrogen receptor [3],3.69 µM
same,IC50,Histone deacetylase 1,Not Active
same,Efficacy,Estrogen receptor beta [4],120%
same,Efficacy,[5],77%
O=C(O)CCCCCCC(=O)Nc1ccc(C2=C(c3ccc(O)cc3)C3CC(S(=O)(=O)Oc4ccc(C(F)(F)F)cc4)C2O3)cc1 (racemic),IC50,DU-145,77 µM
same,Efficacy,Estrogen receptor beta [1],-12%
same,IC50,Vero,> 100 µM
same,Efficacy,[2],10%
same,IC50,MCF7,24 µM
same,IC50,[8],0.648 µM
same,IC50,Histone deacetylase 1,Not Active
same,Efficacy,Estrogen receptor beta [4],136%
same,Efficacy,[5],-51%
same,IC50,Estrogen receptor [11],0.79 µM
Cc1cccc(C)c1OS(=O)(=O)C1CC2OC1C(c1ccc(NC(=O)CCCCCCC(=O)O)cc1)=C2c1ccc(O)cc1 (racemic),Ki,Estrogen receptor beta [6],0.971 µM
same,Ki,Estrogen receptor [7],> 5 µM
same,IC50,DU-145,> 100 µM
same,Efficacy,Estrogen receptor beta [1],-8%
same,IC50,Vero,> 100 µM
same,Efficacy,[2],127%
same,IC50,MCF7,> 100 µM
same,EC50,Estrogen receptor [3],0.32 µM
same,Efficacy,Estrogen receptor beta [4],87%
same,Efficacy,[5],61%
Cc1cccc(OS(=O)(=O)C2CC3OC2C(c2ccc(NC(=O)CCCCCCC(=O)NO)cc2)=C3c2ccc(O)cc2)c1 (racemic),Ki,Estrogen receptor beta [6],> 5 µM
same,Ki,Estrogen receptor [7],4.43 µM
same,IC50,DU-145,32.2 µM
same,Efficacy,Estrogen receptor beta [1],29%
same,EC50,Estrogen receptor beta [10],0.054 µM
same,IC50,Vero,> 100 µM
same,Efficacy,[2],115%
same,IC50,MCF7,22.9 µM
same,IC50,Estrogen receptor beta [9],0.613 µM
same,Efficacy,Estrogen receptor beta [4],48%
same,Efficacy,[5],38%
O=C(CCCCCCC(=O)Nc1ccc(C2=C(c3ccc(O)cc3)C3CC(S(=O)(=O)Oc4ccc(Br)cc4)C2O3)cc1)NO (racemic),Ki,Estrogen receptor [7],> 5 µM
same,IC50,DU-145,11.3 µM
same,Efficacy,Estrogen receptor beta [1],21%
same,EC50,Estrogen receptor beta [10],0.173 µM
same,IC50,Vero,> 100 µM
same,Efficacy,[2],101%
same,IC50,MCF7,17.1 µM
same,IC50,[8],0.23 µM
same,EC50,Estrogen receptor [3],1.14 µM
same,IC50,Histone deacetylase 1,Not Active
same,Efficacy,Estrogen receptor beta [4],91%
same,Efficacy,[5],33%
